Assay results: the NIST ThermoML archive (doi:10.1021/acs.jced.5b00259)

Assay: xn = mol fraction of the nth substance listed
Conditions: 100 kPa, Liquid

CC[NH+]=C(N(C)C)N(C)C.O=S(=O)([N-]S(=O)(=O)C(F)(F)F)C(F)(F)F + CCO
Conditions	mass density [kg/m3]	viscosity [mPa·s]
293.15 K, x1 = 0.1006	1023.01	2.873
293.15 K, x1 = 0.2004	1148.25	5.27
293.15 K, x1 = 0.3001	1225.91	8.21
293.15 K, x1 = 0.4005	1278.7	13.14
293.15 K, x1 = 0.5018	1316.97	19.52
293.15 K, x1 = 0.6011	1345.48	27.48
293.15 K, x1 = 0.6999	1367.71	36.42
293.15 K, x1 = 0.802	1386.71	47.47
293.15 K, x1 = 0.892	1400.66	59.17
293.15 K, x1 = 1	1414.89	74.61
298.15 K, x1 = 0.1006	1018.29	2.557
298.15 K, x1 = 0.2004	1143.37	4.596
298.15 K, x1 = 0.3001	1221.07	7.081
298.15 K, x1 = 0.4005	1273.82	11.13
298.15 K, x1 = 0.5018	1312.1	16.32
298.15 K, x1 = 0.6011	1340.6	22.71
298.15 K, x1 = 0.6999	1362.79	29.85
298.15 K, x1 = 0.802	1381.82	38.34
298.15 K, x1 = 0.892	1395.79	47.22
298.15 K, x1 = 1	1410.03	58.86
303.15 K, x1 = 0.1006	1013.56	2.289
303.15 K, x1 = 0.2004	1138.51	4.049
303.15 K, x1 = 0.3001	1216.29	6.157
303.15 K, x1 = 0.4005	1268.94	9.534
303.15 K, x1 = 0.5018	1307.24	13.8
303.15 K, x1 = 0.6011	1335.71	19.1
303.15 K, x1 = 0.6999	1357.94	24.85
303.15 K, x1 = 0.802	1376.95	31.52
303.15 K, x1 = 0.892	1390.94	38.37
303.15 K, x1 = 1	1405.19	47.27
308.15 K, x1 = 0.1006	1008.82	2.058
308.15 K, x1 = 0.2004	1133.65	3.587
308.15 K, x1 = 0.3001	1211.51	5.391
308.15 K, x1 = 0.4005	1264.09	8.252
308.15 K, x1 = 0.5018	1302.36	11.95
308.15 K, x1 = 0.6011	1330.83	16.25
308.15 K, x1 = 0.6999	1353.07	20.96
308.15 K, x1 = 0.802	1372.11	26.35
308.15 K, x1 = 0.892	1386.12	31.73
308.15 K, x1 = 1	1400.38	38.71
313.15 K, x1 = 0.1006	1004.07	1.861
313.15 K, x1 = 0.2004	1128.85	3.213
313.15 K, x1 = 0.3001	1206.71	4.757
313.15 K, x1 = 0.4005	1259.25	7.206
313.15 K, x1 = 0.5018	1297.45	10.32
313.15 K, x1 = 0.6011	1325.97	13.99
313.15 K, x1 = 0.6999	1348.22	17.94
313.15 K, x1 = 0.802	1367.28	22.3
313.15 K, x1 = 0.892	1381.31	26.65
313.15 K, x1 = 1	1395.59	32.2
318.15 K, x1 = 0.1006	999.26	1.689
318.15 K, x1 = 0.2004	1124.03	2.884
318.15 K, x1 = 0.3001	1201.81	4.227
318.15 K, x1 = 0.4005	1254.43	6.344
318.15 K, x1 = 0.5018	1292.57	8.977
318.15 K, x1 = 0.6011	1321.11	12.15
318.15 K, x1 = 0.6999	1343.4	15.52
318.15 K, x1 = 0.802	1362.45	19.11
318.15 K, x1 = 0.892	1376.52	22.55
318.15 K, x1 = 1	1390.8	27.09
323.15 K, x1 = 0.1006	994.44	1.515
323.15 K, x1 = 0.2004	1119.21	2.606
323.15 K, x1 = 0.3001	1197.01	3.78
323.15 K, x1 = 0.4005	1249.62	5.627
323.15 K, x1 = 0.5018	1287.74	7.837
323.15 K, x1 = 0.6011	1316.28	10.65
323.15 K, x1 = 0.6999	1338.59	13.58
323.15 K, x1 = 0.802	1357.63	16.54
323.15 K, x1 = 0.892	1371.74	19.32
323.15 K, x1 = 1	1386.03	23.14
